This is an account of results in article PMC7932080, “In vitro study of Hesperetin and Hesperidin as inhibitors of zika and chikungunya virus proteases” (PLoS ONE, 2021).

The term ΔTm denotes the shift of the melting midpoint relative to a reference.

One data set deals with Vero cells. Briefly: Cell viability through MTT assay. A general note: Tetrazolium assays rely on reduction of a dye to a coloured formazan, in cell work by metabolically active cells.
The target in the next data set is CHIKV nsP2^pro (Chikungunya virus, UniProt Q8JUX6). Briefly: Thermal unfolding by fluorescence spectroscopy. As to conditions: 10 µM protease, 75 µM ligand.
Sequence of CHIKV nsP2^pro (Q8JUX6 1001-1333): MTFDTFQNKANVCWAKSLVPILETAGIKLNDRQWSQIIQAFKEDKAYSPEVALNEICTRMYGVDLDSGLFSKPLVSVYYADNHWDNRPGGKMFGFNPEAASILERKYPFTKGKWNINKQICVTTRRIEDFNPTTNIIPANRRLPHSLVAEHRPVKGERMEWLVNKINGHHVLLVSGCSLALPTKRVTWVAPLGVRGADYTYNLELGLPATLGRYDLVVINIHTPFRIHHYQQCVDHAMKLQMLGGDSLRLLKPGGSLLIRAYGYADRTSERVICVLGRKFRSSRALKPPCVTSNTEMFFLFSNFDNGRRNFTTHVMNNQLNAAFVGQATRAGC

As to `COc1ccc(C2CC(=O)c3c(O)cc(O)cc3O2)cc1O` (stereo not shown) [HST, 3’,5,7-trihydroxy-4’-methoxyflavanone], the “Cytotoxic effect at the calculated IC50 concentrations” value in the data set with Vero cells (2.3 to 300 µM, 2 days) is “no cytotoxic effect”. The molecule also had a 50% cytotoxic concentration with Vero cells (48 h, concentrations up to 300 µM) of over 300 µM. In addition, on CHIKV nsP2^pro, the “Melting temperature (Tm) of protease-ligand complex” value came to 55 °C and the ΔTm is about 8 °C.
